Reference: patent US8623879B2, “1-heterocyclyl-1,5-dihydro-pyrazolo[3,4-D] pyrimidin-4-one derivates and their use as PDE9A modulators” (Boehringer Ingelheim International GmbH, priority 2008, dated 2014)

What was measured:
human PDE9A = human PDE9A (Homo sapiens, UniProt O76083); conditions: concentrations of up to 100 micromolar; cited from earlier work
Murine PDE9A = molecular target: T1, Murine PDE9A (Mus musculus, UniProt O70628); conditions: concentrations below 200 micromolar; cited from earlier work
T1 sequence (O70628 1-534): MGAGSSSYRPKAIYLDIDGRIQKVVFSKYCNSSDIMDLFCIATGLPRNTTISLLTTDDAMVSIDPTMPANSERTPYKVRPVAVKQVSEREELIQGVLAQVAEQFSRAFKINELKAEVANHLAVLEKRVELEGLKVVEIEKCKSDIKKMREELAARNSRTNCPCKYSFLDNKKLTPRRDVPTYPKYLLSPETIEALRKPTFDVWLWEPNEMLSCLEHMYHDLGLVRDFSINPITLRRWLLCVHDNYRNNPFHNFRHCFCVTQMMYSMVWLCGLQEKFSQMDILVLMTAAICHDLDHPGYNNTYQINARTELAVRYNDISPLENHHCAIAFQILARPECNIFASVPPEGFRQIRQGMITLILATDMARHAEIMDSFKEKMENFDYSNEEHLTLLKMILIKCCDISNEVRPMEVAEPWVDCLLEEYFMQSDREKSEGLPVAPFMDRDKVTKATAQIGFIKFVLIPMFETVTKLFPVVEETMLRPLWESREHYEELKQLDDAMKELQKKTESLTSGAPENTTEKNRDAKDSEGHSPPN

human PDE9A2 = molecular target: T2, human PDE9A2 (Homo sapiens, UniProt O76083); test: PDE9A2 enzymatic activity assay (scintillation proximity assay, SPA); type: biochemical; conditions: for inhibition at 10 µM: read-out: % inhibition of PDE9A2 (at 10 micromolar concentration), 10 micromolar concentration; for inhibition at 10 µM / % inhibition of PDE9A2 (at 10 micromolar concentration): values above 100% adjusted to 100%; for IC50: reported only as range 1-100 or 101-1200 nanomolar, specific value lies within range, read-out: IC50 within range [nanomolar (nM)]
T2 construct: made in house; host or cells: Sf9 insect cells (infected); crude lysate used as enzyme source
T2 sequence (O76083 1-533 isoform O76083-2): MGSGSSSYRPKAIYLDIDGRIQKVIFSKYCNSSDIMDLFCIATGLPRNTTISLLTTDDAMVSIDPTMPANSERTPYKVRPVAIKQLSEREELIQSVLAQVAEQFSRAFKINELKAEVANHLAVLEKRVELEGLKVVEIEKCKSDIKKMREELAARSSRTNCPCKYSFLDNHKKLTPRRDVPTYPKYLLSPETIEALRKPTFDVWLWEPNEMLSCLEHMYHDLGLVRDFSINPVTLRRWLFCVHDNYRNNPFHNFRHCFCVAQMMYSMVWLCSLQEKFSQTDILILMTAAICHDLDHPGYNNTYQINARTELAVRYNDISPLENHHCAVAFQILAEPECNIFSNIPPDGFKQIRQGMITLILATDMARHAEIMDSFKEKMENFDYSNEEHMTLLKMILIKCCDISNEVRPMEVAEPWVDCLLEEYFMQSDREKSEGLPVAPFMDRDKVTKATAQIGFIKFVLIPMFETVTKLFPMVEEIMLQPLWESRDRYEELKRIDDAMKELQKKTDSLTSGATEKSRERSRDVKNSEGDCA

human PDE9A, sequence (O76083 whole entry): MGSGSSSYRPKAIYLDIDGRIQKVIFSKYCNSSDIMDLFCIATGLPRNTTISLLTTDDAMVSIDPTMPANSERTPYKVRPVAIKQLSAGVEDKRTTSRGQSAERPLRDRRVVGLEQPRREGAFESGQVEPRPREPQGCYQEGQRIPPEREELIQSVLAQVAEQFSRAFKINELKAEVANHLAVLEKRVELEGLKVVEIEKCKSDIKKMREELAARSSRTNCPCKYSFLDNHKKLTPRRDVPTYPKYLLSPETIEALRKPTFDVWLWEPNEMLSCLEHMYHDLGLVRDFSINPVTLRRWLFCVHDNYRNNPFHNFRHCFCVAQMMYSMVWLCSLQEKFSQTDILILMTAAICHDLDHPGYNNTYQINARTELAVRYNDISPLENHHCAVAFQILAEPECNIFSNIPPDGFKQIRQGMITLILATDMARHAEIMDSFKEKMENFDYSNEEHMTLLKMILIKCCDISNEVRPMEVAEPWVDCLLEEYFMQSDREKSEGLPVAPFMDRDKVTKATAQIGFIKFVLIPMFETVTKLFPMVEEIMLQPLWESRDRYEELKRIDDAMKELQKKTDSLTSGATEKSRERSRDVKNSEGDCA

Row | inhibition at 10 µM (human PDE9A2) [%] | IC50 (human PDE9A2) [nM] | % inhibition of PDE9A2 (at 10 micromolar concentration) (human PDE9A2) [%] | Compound | inhibition on the isolated enzyme (human PDE9A) | inhibition of murine PDE9A (Murine PDE9A)
1 |  |  |  | COc1ccc(C2CNC(=O)C2)cc1OC1CCCC1 (stereo not drawn) [rolipram] | no inhibition | 
2 |  |  |  | CCOC(=O)C1=C[C@]2(CC)CCCN3CCc4c(n1c1ccccc41)[C@@H]32 [vinpocetine] | no inhibition | 
3 |  |  |  | CC(C)Cn1c(=O)n(C)c(=O)c2[nH]cnc21 [IBMX] | no inhibition | not inhibited
4 |  |  |  | OCCN(CCO)c1nc(N2CCCCC2)c2nc(N(CCO)CCO)nc(N3CCCCC3)c2n1 [dipyridamole] | no inhibition | 
5 | 97 | 1 to 100 |  | O=c1[nH]c(Cc2ccccc2OC2CCOCC2)nc2c1cnn2C1CCOCC1 [Example 60] |  | 
6 | 97 | 1 to 100 |  | CC(=O)N1CCCC(n2ncc3c(=O)[nH]c(CC4CCCC4)nc32)C1 (racemic) [Example 157] |  | 
7 | 93 | 101 to 1200 |  | CC(C)Cc1nc2c(cnn2C2CCCN(C(=O)c3ccccc3)C2)c(=O)[nH]1 (racemic) [Example 177] |  | 
8 | 100 | 1 to 100 |  | COc1ccc(Cc2nc3c(cnn3C3CCOCC3)c(=O)[nH]2)c(Cl)c1 [Example 40-2] |  | 
9 | 99 | 1 to 100 |  | CN1CCC(n2ncc3c(=O)[nH]c(Cc4ccccc4OC(F)(F)F)nc32)C1 (racemic) [Example 211] |  | 
10 | 98 | 1 to 100 |  | O=c1[nH]c(Cc2ccccc2C(F)(F)F)nc2c1cnn2C1CCOCC1 [Example 45] |  | 
11 | 86 | 101 to 1200 |  | Cc1nc(Cc2nc3c(cnn3C3CCOCC3)c(=O)[nH]2)c(C)s1 [Example 24] |  | 
12 |  |  |  | CC(=O)Nc1ccc(-c2c[nH]c(=O)cn2)cc1 [SKF94120] | no inhibition | 
13 | 98 | 101 to 1200 |  | CC(=O)N1CCC(n2ncc3c(=O)[nH]c(Cc4ccccc4OC(F)(F)F)nc32)C1 (racemic) [Example 164] |  | 
14 | 88 | 101 to 1200 |  | O=c1[nH]c(CC2CCCC2)nc2c1cnn2C1CCNCC1 [Example 195] |  | 
15 | 95 | 1 to 100 |  | CCC(CC)Cc1nc2c(cnn2C2CCOC(C)C2)c(=O)[nH]1 (racemic) [Example 119] |  | 
16 | 95 | 101 to 1200 |  | N#Cc1cccc(Cc2nc3c(cnn3C3CCOC3)c(=O)[nH]2)c1 (racemic) [Example 89] |  | 
17 | 97 | 1 to 100 |  | O=c1[nH]c(Cc2cccc(C(F)(F)F)n2)nc2c1cnn2C1CCOCC1 [Example 64] |  | 
18 |  | 101 to 1200 | 90 | CC(Cc1nc2c(cnn2C2CCOCC2)c(=O)[nH]1)C(F)(F)F (single isomer, unassigned) [Example 132] |  | 
19 | 100 | 101 to 1200 |  | O=c1[nH]c(Cc2ccccc2OC(F)(F)F)nc2c1cnn2C1CCCNC1 (racemic) [Example 198] |  | 
20 | 99 | 101 to 1200 |  | CC(=O)N1CCC(n2ncc3c(=O)[nH]c(CC4CCCC4)nc32)C1 (racemic) [Example 165] |  | 
21 | 99 | 1 to 100 |  | O=c1[nH]c(Cc2cccc(C(F)(F)F)c2)nc2c1cnn2C1CCOC1 (racemic) [Example 85] |  | 
22 |  | 101 to 1200 | 89 | CC1CC(n2ncc3c(=O)[nH]c(Cc4ccccn4)nc32)CCO1 (racemic) [Example 118] |  | 
23 | 97 | 1 to 100 |  | O=c1[nH]c(CC2CCC2)nc2c1cnn2C1CCOC1 (racemic) [Example 73] |  | 
